According to patent US8765779B2, “Tricyclic derivatives and their pharmaceutical use and compositions” (Cephalon, Inc., priority 2009, dated 2014):

Biological target: T1, human 5-HT6 receptor (Homo sapiens, UniProt P50406)
T1 construct: host or cells: CHO-K1 cells, stably transfected; membranes prepared in house
Assay: Human 5-HT6 Receptor Binding Assay ([3H]LSD displacement, scintillation beads)
Conditions: membranes of CHO-K1 cells with recombinant human 5-HT6, 4 nM [3H]LSD; Table 1, class symbols; read-out: h5-HT6 (Ki)

T1 sequence (P50406 whole entry): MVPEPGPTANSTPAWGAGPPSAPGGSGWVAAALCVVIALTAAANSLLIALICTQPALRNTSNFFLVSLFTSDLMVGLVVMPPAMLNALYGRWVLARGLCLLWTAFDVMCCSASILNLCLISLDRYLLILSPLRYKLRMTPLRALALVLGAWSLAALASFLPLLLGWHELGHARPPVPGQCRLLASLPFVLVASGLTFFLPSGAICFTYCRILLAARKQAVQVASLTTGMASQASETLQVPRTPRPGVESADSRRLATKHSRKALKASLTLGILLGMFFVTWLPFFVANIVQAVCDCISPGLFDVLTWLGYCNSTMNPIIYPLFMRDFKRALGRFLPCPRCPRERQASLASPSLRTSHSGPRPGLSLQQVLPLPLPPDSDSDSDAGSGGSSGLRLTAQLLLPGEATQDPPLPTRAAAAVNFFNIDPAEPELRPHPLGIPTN

`CC1OCCC12NCCc1c2oc2cc(S(=O)(=O)c3cccc(F)c3)ccc12` (single isomer, unassigned) [Example 56, 7-[(3-Fluorophenyl)sulfonyl]-2′-methyl-3,4,4′,5′-tetrahydro-2H-spiro[1-benzofuro[2,3-c]pyridine-1,3′-furan]] and `O=S(=O)(c1cccc(F)c1)c1ccc2c3c(oc2c1)CNCC3` [Example 341] cannot be ordered by Ki: < 500 nM for the first, < 500 nM for the second.

`O=S(=O)(Oc1ccc2c(c1)C1CCNCC1O2)c1ccc(Oc2ccccc2)nc1` (centres unmarked) [Example 746] and `O=S(=O)(Oc1ccc2c(c1)OC1CNCCC21)c1ccc(Oc2ccccc2)nc1` (centres unmarked) [Example 685] cannot be ordered by Ki: > 1000 nM for the first, > 1000 nM for the second.

`O=S(=O)(c1cccc(F)c1)c1ccc2c3c([nH]c2c1)C1(CCCOC1)NCC3` (centres unmarked) [Example 317] and `O=S(=O)(c1cc(F)cc(F)c1)c1ccc2c3c([nH]c2c1)C1(CCCOC1)NCC3` (centres unmarked) [Example 312] cannot be ordered by Ki: < 500 nM for the first, < 500 nM for the second.

`O=S(=O)(c1cccc(C(F)(F)F)c1)c1ccc2c3c(oc2c1)CNCC3` [Example 192] and `O=S(=O)(c1ccc(C(F)(F)F)cc1)c1ccc2oc3c(c2c1)CCNC3` [Example 278] cannot be ordered by Ki: < 500 nM for the first, < 500 nM for the second.

`O=S(=O)(c1cc(Cl)cc(Cl)c1)c1ccc2oc3c(c2c1)CCNC3` [Example 262, 6-[(3,5-dichlorophenyl)sulfonyl]-1,2,3,4-tetrahydro[1]benzofuro[2,3-c]pyridine] and `COc1cccc(S(=O)(=O)c2ccc3oc4c(c3c2)CCNC4)c1` [Example 246] cannot be ordered by Ki: < 500 nM for the first, < 500 nM for the second.

`COc1cncc(S(=O)(=O)c2ccc3c4c(oc3c2)C2(CCOC2)NCC4(C)C)c1` (centres unmarked) [Example 454] and `CC(C)Oc1cccc(S(=O)(=O)c2ccc3c4c(oc3c2)C2(CCOC2)NCC4)c1` (single isomer, unassigned) [Example 32, 7-{[3-(propan-2-yloxy)phenyl]sulfonyl}-3,4,4′,5′-tetrahydro-2H-spiro[1-benzofuro[2,3-c]pyridine-1,3′-furan]] cannot be ordered by Ki: < 500 nM for the first, < 500 nM for the second.

`CC(C)C1NCCc2c1oc1cc(S(=O)(=O)c3cccc(F)c3)ccc21` (centres unmarked) [Example 495] and `O=S(=O)(c1cccc(F)c1)c1ccc2c3c(oc2c1)C(C(F)F)NCC3` (centres unmarked) [Example 509] cannot be ordered by Ki: < 500 nM for the first, < 500 nM for the second.

`CC(=O)Nc1ccc(S(=O)(=O)Oc2ccc3c(c2)C2CCNCC2O3)cc1` (centres unmarked) [Example 728] and `O=S(=O)(Oc1ccc2c(c1)C1CCNCC1O2)c1ccc(F)cc1` (centres unmarked) [Example 702] cannot be ordered by Ki: > 1000 nM for the first, > 1000 nM for the second.

`O=S(=O)(c1ccc2c(c1)OC1CNCCC21)c1cccc(Cl)c1F` (centres unmarked) [Example 422] and `COc1cccc(S(=O)(=O)c2ccc3c(c2)OC2CNCCC32)c1F` (centres unmarked) [Example 416] cannot be ordered by Ki: < 500 nM for the first, < 500 nM for the second.

`COc1cccc(COc2cccc(S(=O)(=O)c3ccc4c(c3)OC3CNCCC43)c2)c1` (centres unmarked) [Example 575] and `CCCOc1cccc(S(=O)(=O)c2ccc3c(c2)OC2CNCCC32)c1` (centres unmarked) [Example 572] cannot be ordered by Ki: < 500 nM for the first, < 500 nM for the second.

Going from `CC12CCNCC1Oc1ccc(OS(=O)(=O)c3ccc4ccccc4c3)cc12` (centres unmarked) [Example 769] to `CC12CCNCC1Oc1ccc(OS(=O)(=O)c3ccc(-n4cccn4)cc3)cc12` (centres unmarked) [Example 776], the Ki rises from < 500 nM to > 1000 nM. The first binds more tightly here.

`O=S(=O)(c1cccc(F)c1)c1ccc2c3c(oc2c1)C1CCCCN1CC3` (centres unmarked) [Example 617] and `O=S(=O)(c1cccc(F)c1)c1ccc2oc3c(c2c1)CCN1CCC31` (centres unmarked) [Example 619] cannot be ordered by Ki: < 500 nM for the first, < 500 nM for the second.

`O=S(=O)(Oc1ccc2c(c1)OC1CNCCC21)c1ccc(-n2cccn2)cc1` (centres unmarked) [Example 671] and `O=S(=O)(Oc1ccc2c(c1)OC1CNCCC21)c1ccc(Cl)cc1` (centres unmarked) [Example 635, 1,2,3,4,4a,9a-Hexahydro[1]benzofuro[2,3-c]pyridin-7-yl 4-chlorobenzenesulfonate] cannot be ordered by Ki: < 500 nM for the first, < 500 nM for the second.

Compared with `O=S(=O)(c1ccc(-c2ccccc2)cc1)c1ccc2c3c(oc2c1)CNCC3` [Example 228], `O=S(=O)(c1ccc2c3c(oc2c1)CNCC3)c1ccccc1-c1ccccc1` [Example 232] is lower in Ki: 500 to 1000 nM for the first, < 500 nM for the second.

`O=S(=O)(c1ccc2c3c(oc2c1)[C@]1(CCOC1)NCC3)c1cc(F)ccc1F` (single isomer, unassigned) [Example 111] and `O=S(=O)(c1ccccc1)c1ccc2c3c(oc2c1)[C@]1(CCOC1)NCC3` (single isomer, unassigned) [Example 110] cannot be ordered by Ki: < 500 nM for the first, < 500 nM for the second.

Compared with `O=S(=O)(c1ccc2c(c1)C1CCNCC1O2)N1CCC2CCCCC2C1` (centres unmarked) [Example 860], `O=S(=O)(Nc1ccc2c(c1)C1CCNCC1O2)c1ccc(Cl)c(Cl)c1` (centres unmarked) [Example 827] is lower in Ki: > 1000 nM for the first, < 500 nM for the second.

`Cc1c(S(=O)(=O)Oc2ccc3c(c2)OC2CNCCC32)sc2ccc(Cl)cc12` (centres unmarked) [Example 796] and `Cc1c(S(=O)(=O)Nc2ccc3c(c2)C2CCNCC2O3)sc2ccc(Cl)cc12` (centres unmarked) [Example 830] cannot be ordered by Ki: < 500 nM for the first, < 500 nM for the second.

`O=S(=O)(Cc1ccc(F)cc1F)Oc1ccc2c(c1)C1CCNCC1O2` (centres unmarked) [Example 756] and `O=S(=O)(Cc1ccccc1Cl)Oc1ccc2c(c1)C1CCNCC1O2` (centres unmarked) [Example 754] cannot be ordered by Ki: > 1000 nM for the first, > 1000 nM for the second.

`O=S(=O)(c1ccc2ccccc2c1)c1ccc2oc3c(c2c1)CCNC3` [Example 251] and `O=S(=O)(c1ccc2oc3c(c2c1)CCNC3)c1ccccn1` [Example 353] cannot be ordered by Ki: < 500 nM for the first, < 500 nM for the second.

Compared with `Cc1ncccc1S(=O)(=O)c1ccc2c3c(oc2c1)C(C)(C)NCC3` [Example 375], `CC1(C)NCCc2c1oc1cc(S(=O)(=O)c3cc(Cl)cnc3O)ccc21` [Example 373] is higher in Ki: < 500 nM for the first, > 1000 nM for the second. The first binds more tightly here.

`Cc1ccc(F)cc1S(=O)(=O)c1ccc2oc3c(c2c1)CCNC3` [Example 254] and `O=S(=O)(c1ccc(F)cc1)c1ccc2c3c(oc2c1)CNCC3` [Example 213] cannot be ordered by Ki: < 500 nM for the first, < 500 nM for the second.

`O=S(=O)(c1cc(F)cc(Cl)c1)c1ccc2c(c1)OC1CNCCC21` (centres unmarked) [Example 147] and `CCCCOc1cc(OC)cc(S(=O)(=O)c2ccc3c(c2)OC2CNCCC32)c1` (centres unmarked) [Example 587] cannot be ordered by Ki: < 500 nM for the first, < 500 nM for the second.

`O=S(=O)(Oc1ccc2c(c1)C1CCNCC1O2)c1c(Cl)nc2sccn12` (centres unmarked) [Example 698] and `Cc1c(Cl)cccc1S(=O)(=O)Oc1ccc2c(c1)C1CCNCC1O2` (centres unmarked) [Example 717] cannot be ordered by Ki: < 500 nM for the first, < 500 nM for the second.

First: O=S(=O)(c1ccccc1)c1ccc2c(c1)OC1CN(C3CCCCC3)CCC21 (centres unmarked) [Example 610]
Second: O=S(=O)(c1cccc(OC2CCOCC2)c1)c1ccc2c(c1)OC1CNCCC21 (centres unmarked) [Example 571]
The Ki of the first is higher: 500 to 1000 nM for the first, < 500 nM for the second. The second binds more tightly here.

`O=S(=O)(Oc1ccc2c(c1)C1CCNCC1O2)c1cc2ccccc2s1` (centres unmarked) [Example 724] and `O=S(=O)(Oc1ccc2c(c1)C1CCNCC1O2)c1cccc2ccccc12` (centres unmarked) [Example 720] cannot be ordered by Ki: < 500 nM for the first, < 500 nM for the second.

`O=S(=O)(c1cccc(Oc2ccccn2)c1)c1ccc2c(c1)OC1CNCCC21` (centres unmarked) [Example 579] and `COc1cccc(S(=O)(=O)c2ccc3c(c2)C2CCNCC2O3)c1` (centres unmarked) [Example 178] cannot be ordered by Ki: < 500 nM for the first, < 500 nM for the second.

`CC12CCNCC1Oc1cc(S(=O)(=O)c3ncccn3)ccc12` (racemic) [Example 9, 4a-methyl-7-(pyrimidin-2-ylsulfonyl)-1,2,3,4,4a,9a-hexahydro[1]benzofuro[2,3-c]pyridine] and `CC12CCNCC1Oc1ccc(S(=O)(=O)c3ccncc3)cc12` (racemic) [Example 13, 4a-methyl-6-(pyridin-4-ylsulfonyl)-1,2,3,4,4a,9a-hexahydro[1]benzofuro[2,3-c]pyridine] cannot be ordered by Ki: > 1000 nM for the first, > 1000 nM for the second.

`CCCCC1NCCc2c1oc1cc(S(=O)(=O)c3cccc(Cl)c3)ccc21` (centres unmarked) [Example 499] and `O=S(=O)(c1cccc(Cl)c1)c1ccc2c3c(oc2c1)C(CC(F)(F)F)NCC3` (centres unmarked) [Example 504] cannot be ordered by Ki: < 500 nM for the first, < 500 nM for the second.

`CC(C)CN1CCc2c(oc3cc(S(=O)(=O)c4ccccc4)ccc23)C1` [Example 593] and `CC(C)Oc1cccc(S(=O)(=O)c2ccc3c4c(oc3c2)CNCC4)c1` [Example 217] cannot be ordered by Ki: < 500 nM for the first, < 500 nM for the second.

`O=S(=O)(c1cc(F)cc(Cl)c1)c1ccc2c(c1)OC1CNCCC21` (centres unmarked) [Example 157] and `Cc1c(S(=O)(=O)Oc2ccc3c(c2)OC2CNCCC32)sc2ccc(Cl)cc12` (centres unmarked) [Example 797] cannot be ordered by Ki: < 500 nM for the first, < 500 nM for the second.

`CC12CCNCC1Oc1ccc(S(=O)(=O)c3cc[n+]([O-])cc3)cc12` (racemic) [Example 14, 4a-methyl-6-[(1-oxidopyridin-4-yl)sulfonyl]-1,2,3,4,4a,9a-hexahydro[1]benzofuro[2,3-c]pyridine] and `CC(C)(C)c1ccc(S(=O)(=O)Oc2ccc3c(c2)C2(C)CCNCC2O3)cc1` (centres unmarked) [Example 774] cannot be ordered by Ki: > 1000 nM for the first, > 1000 nM for the second.

Compared with `CC12CCNCC1Oc1ccc(OS(=O)(=O)c3ccc(-c4ccon4)s3)cc12` (centres unmarked) [Example 781], `CC12CCNCC1Oc1ccc(OS(=O)(=O)Cc3cccc(C(F)(F)F)c3)cc12` (centres unmarked) [Example 788] is lower in Ki: > 1000 nM for the first, < 500 nM for the second.

`Cc1c(OCc2cccnc2)cccc1S(=O)(=O)c1ccc2c(c1)OC1CNCCC21` (centres unmarked) [Example 566] and `O=S(=O)(c1ccc2c(c1)C1CCNCC1O2)c1cccc2ccccc12` (centres unmarked) [Example 170] cannot be ordered by Ki: < 500 nM for the first, < 500 nM for the second.

Compared with `[O-][S+](c1ccc2c3c(oc2c1)CNCC3)c1cc(Cl)ccc1Cl` (centres unmarked) [Example 214], `CNC(=O)c1cccc(S(=O)(=O)c2ccc3c4c(oc3c2)CNCC4)c1` [Example 478] is higher in Ki: < 500 nM for the first, 500 to 1000 nM for the second. The first binds more tightly here.

Compared with `O=S(=O)(Oc1ccc2c(c1)OC1CNCCC21)c1ccccc1C(F)(F)F` (centres unmarked) [Example 674], `Cc1oncc1S(=O)(=O)Oc1ccc2c(c1)OC1CNCCC21` (centres unmarked) [Example 640] is higher in Ki: < 500 nM for the first, > 1000 nM for the second.

`CN(C)C(=O)CC1(C)NCCc2c1oc1cc(S(=O)(=O)c3cccc(F)c3)ccc21` (single isomer, unassigned) [Example 51, 2-{7-[(3-fluorophenyl)sulfonyl]-1-methyl-1,2,3,4-tetrahydro[1]benzofuro[2,3-c]pyridin-1-yl}-N,N-dimethylacetamide] and `CC12CCNCC1Oc1cc(S(=O)(=O)c3cccc(OC(F)(F)F)c3)ccc12` (centres unmarked) [Example 358, 4a-methyl-7-{[3-(trifluoromethoxy)phenyl]sulfo-nyl}-1,2,3,4,4a,9a-hexahydro[1]benzofuro[2,3-c]pyridine] cannot be ordered by Ki: < 500 nM for the first, < 500 nM for the second.

`O=S(=O)(Oc1ccc2c(c1)C1CCNCC1O2)c1ccc(-c2cnco2)cc1` (centres unmarked) [Example 734] and `CC(C)N1CCC2(C)c3cc(OS(=O)(=O)Cc4ccccc4)ccc3OC2C1` (centres unmarked) [Example 804] cannot be ordered by Ki: > 1000 nM for the first, > 1000 nM for the second.
